Assays:
Type in all cases: functional
HOP-92 = experiment: Cytotoxicity against human HOP92 cells assessed as growth inhibition at 10 uM after 48 hrs by SRB assay; details: HOP-92, 48 h, read-out: GI
OVCAR-8 [1] = experiment: Cytotoxicity against human OVCAR8 cells assessed as growth inhibition at 10 uM after 48 hrs by SRB assay; details: OVCAR-8, 48 h, read-out: GI
CCRF-CEM = experiment: Cytotoxicity against human CCRF-CEM cells assessed as cell growth at 10^-6 M after 48 hrs by SRB assay; details: read-out: Activity
SNB-19 = experiment: Cytotoxicity against human SNB19 cells after 48 hrs by SRB assay; details: SNB-19, 48 h
M14 [2] = experiment: Cytotoxicity against human M14 cells assessed as cell growth at 10^-6 M after 48 hrs by SRB assay; details: M14, 48 h, read-out: Activity
U-251 [3] = experiment: Cytotoxicity against human U251 cells assessed as cell growth at 10^-4 M after 48 hrs by SRB assay; details: U-251, 48 h, read-out: Activity
MDA-MB-435 [4] = experiment: Cytotoxicity against human MDA-MB-435 cells assessed as cell growth at 10^-7 M after 48 hrs by SRB assay; details: MDA-MB-435, 48 h, read-out: Activity
SK-OV-3 [5] = experiment: Cytotoxicity against human SKOV3 cells assessed as cell growth at 10^-8 M after 48 hrs by SRB assay; details: SK-OV-3, 48 h, read-out: Activity
CAKI-1 [6] = experiment: Cytotoxicity against human Caki1 cells assessed as cell growth at 10^-8 M after 48 hrs by SRB assay; details: CAKI-1, 48 h, read-out: Activity
PC-3 [7] = experiment: Cytotoxicity against human PC3 cells assessed as cell growth at 10^-4 M after 48 hrs by SRB assay; details: PC-3, 48 h, read-out: Activity
MDA-MB-435 [8] = experiment: Cytotoxicity against human MDA-MB-435 cells assessed as cell growth at 10^-6 M after 48 hrs by SRB assay; details: MDA-MB-435, 48 h, read-out: Activity
HT-29 = experiment: Cytotoxicity against human HT-29 cells assessed as cell growth at 10^-7 M after 48 hrs by SRB assay; details: HT-29, 48 h, read-out: Activity
MOLT-4 = experiment: Cytotoxicity against human MOLT4 cells assessed as cell growth at 10^-4 M after 48 hrs by SRB assay; details: MOLT-4, 48 h, read-out: Activity
LOX IMVI [9] = experiment: Cytotoxicity against human LOXIMVI cells after 48 hrs by SRB assay
CAKI-1 [10] = experiment: Cytotoxicity against human Caki1 cells assessed as cell growth at 10^-7 M after 48 hrs by SRB assay; details: CAKI-1, 48 h, read-out: Activity
UACC-62 [11] = experiment: Cytotoxicity against human UACC62 cells assessed as cell growth at 10^-4 M after 48 hrs by SRB assay; details: UACC-62, 48 h, read-out: Activity
M14 [12] = experiment: Cytotoxicity against human M14 cells after 48 hrs by SRB assay; details: M14, 48 h
MDA-MB-231 = experiment: Cytotoxicity against human MDA-MB-231 cells after 48 hrs by SRB assay; details: MDA-MB-231, 48 h
SW-620 = experiment: Cytotoxicity against human SW620 cells assessed as cell growth at 10^-8 M after 48 hrs by SRB assay; details: SW-620, 48 h, read-out: Activity
SF-268 [13] = experiment: Cytotoxicity against human SF268 cells assessed as cell growth at 10^-4 M after 48 hrs by SRB assay; details: SF-268, 48 h, read-out: Activity
NCI-H322M = experiment: Cytotoxicity against human NCI-H322M cells assessed as cell growth at 10^-4 M after 48 hrs by SRB assay; details: read-out: Activity
HCC 2998 [14] = experiment: Cytotoxicity against human HCC2998 cells assessed as cell growth at 10^-7 M after 48 hrs by SRB assay; details: HCC 2998, 48 h, read-out: Activity
OVCAR-8 [15] = experiment: Cytotoxicity against human OVCAR8 cells after 48 hrs by SRB assay; details: OVCAR-8, 48 h
SK-OV-3 [16] = experiment: Cytotoxicity against human SKOV3 cells assessed as cell growth at 10^-7 M after 48 hrs by SRB assay; details: SK-OV-3, 48 h, read-out: Activity
MDA-MB-468 = experiment: Cytotoxicity against human MDA-MB-468 cells after 48 hrs by SRB assay; details: MDA-MB-468, 48 h
[17] = Cytotoxicity against human OVCAR5 cells assessed as cell growth at 10^-6 M after 48 hrs by SRB assay; details: OVCAR-5, 48 h, read-out: Activity
HCC 2998 [18] = experiment: Cytotoxicity against human HCC2998 cells after 48 hrs by SRB assay; details: HCC 2998, 48 h
COLO 205 = experiment: Cytotoxicity against human COLO205 cells assessed as cell growth at 10^-4 M after 48 hrs by SRB assay; details: COLO 205, 48 h, read-out: Activity
A498 [19] = experiment: Cytotoxicity against human A498 cells assessed as cell growth at 10^-7 M after 48 hrs by SRB assay; details: A498, 48 h, read-out: Activity
SN12C = experiment: Cytotoxicity against human SN12C cells assessed as cell growth at 10^-6 M after 48 hrs by SRB assay; details: read-out: Activity
SF-539 = experiment: Cytotoxicity against human SF539 cells assessed as cell growth at 10^-7 M after 48 hrs by SRB assay; details: SF-539, 48 h, read-out: Activity
MCF7 = experiment: Cytotoxicity against human MCF7 cells assessed as cell growth at 10^-7 M after 48 hrs by SRB assay; details: MCF7, 48 h, read-out: Activity
SF-268 [20] = experiment: Cytotoxicity against human SF268 cells after 48 hrs by SRB assay; details: SF-268, 48 h
NCI-H522 = experiment: Cytotoxicity against human NCI-H522 cells assessed as cell growth at 10^-7 M after 48 hrs by SRB assay; details: NCI-H522, 48 h, read-out: Activity
UACC-62 [21] = experiment: Cytotoxicity against human UACC62 cells assessed as cell growth at 10^-7 M after 48 hrs by SRB assay; details: UACC-62, 48 h, read-out: Activity
PC-3 [22] = experiment: Cytotoxicity against human PC3 cells after 48 hrs by SRB assay; details: PC-3, 48 h
U-251 [23] = experiment: Cytotoxicity against human U251 cells assessed as cell growth at 10^-7 M after 48 hrs by SRB assay; details: U-251, 48 h, read-out: Activity
A498 [24] = experiment: Cytotoxicity against human A498 cells assessed as cell growth at 10^-4 M after 48 hrs by SRB assay; details: A498, 48 h, read-out: Activity
LOX IMVI [25] = experiment: Cytotoxicity against human LOXIMVI cells assessed as cell growth at 10^-4 M after 48 hrs by SRB assay; details: read-out: Activity
[26] = read-out: LC50 (the source's name)

`C=CCn1c(C)nc2ccc(Nc3nc(Sc4ccc(N)cc4)nc4ccccc34)cc21` showed an inhibition of growth at 10 µM (HOP-92) of 30% and an inhibition of growth at 10 µM (OVCAR-8 [1]) of 30%.
`C=CCn1c(C)nc2ccc(Nc3nc(Nc4ncccn4)nc4ccccc34)cc21` gave an inhibition of growth at 10 µM (HOP-92) of 30%.
Compound `C=CCn1c(C)nc2ccc(Nc3nc(Nc4ccc(F)cc4)nc4ccccc34)cc21` has a growth at 1 µM (CCRF-CEM) of 94%, a GI50 (SNB-19) of 9 µM and a TGI (SNB-19) of 23.8 µM. The CC50 (SNB-19; [26]) was 58.6 µM, the growth at 1 µM (M14 [2]) was 94% and the growth at 100 µM (U-251 [3]) was -80%. For the same compound, the growth at 0.1 µM (MDA-MB-435 [4]) was 100%, the growth at 0.01 µM (SK-OV-3 [5]) was 96% and the growth at 0.01 µM (CAKI-1 [6]) was 100%. For the same compound, the growth at 100 µM (PC-3 [7]) was -79%, the growth at 1 µM (MDA-MB-435 [8]) was 90% and the growth at 0.1 µM (HT-29) was 101%. It also gave a growth at 100 µM (MOLT-4) of -48%, a GI50 (LOX IMVI [9]) of 4.36 µM and an LC50 (LOX IMVI [9]) of over 100 µM. For the same compound, the TGI (LOX IMVI [9]) was 23 µM, the growth at 0.1 µM (CAKI-1 [10]) was 102% and the growth at 100 µM (UACC-62 [11]) was -70%. For the same compound, the GI50 (M14 [12]) was 3.26 µM, the TGI (M14 [12]) was 14.2 µM and the CC50 (M14 [12]; [26]) was over 100 µM. It also gave an inhibition of growth at 10 µM (OVCAR-8 [1]) of 50%, a GI50 (MDA-MB-231) of 2.37 µM and an LC50 (MDA-MB-231) of over 100 µM. For the same compound, the TGI (MDA-MB-231) was 8.24 µM, the growth at 0.01 µM (SW-620) was 99% and the growth at 100 µM (SF-268 [13]) was -59%. It also gave a growth at 100 µM (NCI-H322M) of -82%, a growth at 0.1 µM (HCC 2998 [14]) of 97% and a GI50 (OVCAR-8 [15]) of 3.05 µM. The LC50 (OVCAR-8 [15]) was over 100 µM, the TGI (OVCAR-8 [15]) was 13.6 µM and the growth at 0.1 µM (SK-OV-3 [16]) was 112%. The GI50 (MDA-MB-468) was 1.23 µM, the TGI (MDA-MB-468) was 2.6 µM and the growth at 1 µM [17] was 92%. For the same compound, the GI50 (HCC 2998 [18]) was 8.87 µM, the LC50 (50% lethal concentration) (HCC 2998 [18]) was 58.2 µM and the TGI (HCC 2998 [18]) was 23.5 µM. The growth at 100 µM (COLO 205) was -28%, the growth at 0.1 µM (A498 [19]) was 83% and the growth at 1 µM (SN12C) was 81%. For the same compound, the growth at 0.1 µM (SF-539) was 98%, the growth at 0.1 µM (MCF7) was 87% and the GI50 (SF-268 [20]) was 8.69 µM. For the same compound, the LC50 (50% lethal concentration) (SF-268 [20]) was 82.3 µM, the TGI (SF-268 [20]) was 27.8 µM and the growth at 0.1 µM (NCI-H522) was 84%. It also gave a growth at 0.1 µM (UACC-62 [21]) of 95%, a GI50 (PC-3 [22]) of 3.14 µM and a TGI (PC-3 [22]) of 14.7 µM. The CC50 (PC-3 [22]; [26]) was 49.7 µM, the growth at 0.1 µM (U-251 [23]) was 92% and the growth at 100 µM (A498 [24]) was -68%. For the same compound, the growth at 100 µM (LOX IMVI [25]) was -42%.
